Like-named read-outs stand apart in the source and are kept apart here.
What was measured:
NLRC4 inflammasome = target: T1, NLRC4 inflammasome (Mus musculus, UniProt Q3UP24); assay: IL-1β production in mouse BMDMs after NLRC4 activation (LPS + flagellin); type: cell-based; conditions: mBMDMs, concentrations up to 10 µM
T1 construct: host or cells: mouse BMDMs, LPS + transfected flagellin
Procedure: (§1) Cell viability was determined by addition of an equal volume of CellTiter-Glo® 2.0 reagent (Promega) to the remaining cells/supernatant in each well. Intracellular Caspase-1 activity was measured using the Caspase-Glo® assay (Promega) according to the manufacturer’s instructions. The biochemical capsase-1 assay was conducted at Reaction Biology Corporation (Malvern, USA). Human IL-1β, IL-1α, and TNFα and mouse IL-1β were measured in cell culture supernatants using homogeneous time resolved fluorescence assay kits (HTRF, Cisbio, Codolet, France). Human IL-18 was measured in cell culture supernatants using an ELISA kit (R&D Systems, Minneapolis, MN, USA). Plasma IL-1β concentrations were determined by Quantikine® ELISA (R&D Systems, Minneapolis, MN).
4H). MS: m/z 433.1 (M+H+). […]
(§2) flagellin, prepared in Opt iMEM and combined with Lipofectamine 2000. […] After priming Nlrp3 -/- mBMDMs with 100 ng/mL of LPS for 3- 5 h, cells were exposed to 100 ng/mL L18- MDP and incubated overnight.At the end of the incubation period of the assays above, plates were briefly centri fuged and hal f of the cell culture supern atant remo ved and either analysed i mmediately or stored at - 80°C for subs equent cytokine […]

NLRP3 inflammasome = NLRP3 inflammasome (Homo sapiens, UniProt Q96P20); assay: Inhibition of IL-1β, IL-18 and IL-1α production in human PBMCs stimulated by LPS + ATP; type: cell-based; design: host or cells: human PBMCs; fresh heparinised human whole blood from healthy volunteers; conditions: Human PBMC
Sequence of NLRP3 inflammasome (Q96P20 whole entry): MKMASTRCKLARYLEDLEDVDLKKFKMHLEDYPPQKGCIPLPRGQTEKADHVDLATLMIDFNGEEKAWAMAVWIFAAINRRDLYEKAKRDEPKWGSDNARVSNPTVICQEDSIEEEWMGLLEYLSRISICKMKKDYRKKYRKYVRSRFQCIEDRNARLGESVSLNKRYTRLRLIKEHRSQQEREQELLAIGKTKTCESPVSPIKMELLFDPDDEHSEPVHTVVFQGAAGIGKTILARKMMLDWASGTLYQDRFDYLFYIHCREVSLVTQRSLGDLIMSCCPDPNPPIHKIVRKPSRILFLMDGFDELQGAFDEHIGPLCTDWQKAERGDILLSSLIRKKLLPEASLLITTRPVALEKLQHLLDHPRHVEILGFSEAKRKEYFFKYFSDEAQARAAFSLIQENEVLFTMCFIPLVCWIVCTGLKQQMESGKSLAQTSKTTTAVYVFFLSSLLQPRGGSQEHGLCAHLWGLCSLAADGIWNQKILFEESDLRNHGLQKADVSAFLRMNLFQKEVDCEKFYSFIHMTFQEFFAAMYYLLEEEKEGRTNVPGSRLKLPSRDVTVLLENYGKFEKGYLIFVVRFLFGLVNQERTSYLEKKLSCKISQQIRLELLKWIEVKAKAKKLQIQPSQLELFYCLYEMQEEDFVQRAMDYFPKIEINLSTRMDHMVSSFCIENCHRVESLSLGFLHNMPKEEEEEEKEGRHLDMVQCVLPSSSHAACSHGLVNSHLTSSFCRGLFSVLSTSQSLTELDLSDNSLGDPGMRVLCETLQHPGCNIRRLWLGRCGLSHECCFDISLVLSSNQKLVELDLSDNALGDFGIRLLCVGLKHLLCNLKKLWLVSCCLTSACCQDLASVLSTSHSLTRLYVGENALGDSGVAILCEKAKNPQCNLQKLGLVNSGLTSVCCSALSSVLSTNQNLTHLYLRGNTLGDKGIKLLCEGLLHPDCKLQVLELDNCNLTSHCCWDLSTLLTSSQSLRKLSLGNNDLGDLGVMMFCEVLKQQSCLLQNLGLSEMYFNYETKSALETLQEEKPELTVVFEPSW
Procedure: Inflammasome activation and whole blood assays were essentially carried out as described earlier. Details can be found in the supplementary information section accompanying this publication. A protocol for blood draws from healthy volunteers and use of the blood in preclinical assays was approved by Western Institutional Review Board, Inc (Puyallup, WA, USA). Informed consent was obtained from each donor prior to the first blood draw.
as §1
4H). MS: m/z 433.1 (M+H+).
Inflammasome activation.PBMCs (iXCells Biotechnologies, San Diego, USA) were thawed the day before the assay and seeded in complete medium (RPMI 1640 medium with GlutaMAX, supplemented with an additional 2.5 g/L D-glucose, 10% Fet al Bovine Serum, 100 mM Sodium Pyruvate, 1% Penicillin/Streptomycin, 10 mM HEPES and 0.05 mM β -mercaptoethanol) in polystyrene V-bottom 96-well plates at 5x10^4 cells per well and incubated overnight at 37°C with 5% CO 2. […]
as §2

T1 sequence (Q3UP24 whole entry): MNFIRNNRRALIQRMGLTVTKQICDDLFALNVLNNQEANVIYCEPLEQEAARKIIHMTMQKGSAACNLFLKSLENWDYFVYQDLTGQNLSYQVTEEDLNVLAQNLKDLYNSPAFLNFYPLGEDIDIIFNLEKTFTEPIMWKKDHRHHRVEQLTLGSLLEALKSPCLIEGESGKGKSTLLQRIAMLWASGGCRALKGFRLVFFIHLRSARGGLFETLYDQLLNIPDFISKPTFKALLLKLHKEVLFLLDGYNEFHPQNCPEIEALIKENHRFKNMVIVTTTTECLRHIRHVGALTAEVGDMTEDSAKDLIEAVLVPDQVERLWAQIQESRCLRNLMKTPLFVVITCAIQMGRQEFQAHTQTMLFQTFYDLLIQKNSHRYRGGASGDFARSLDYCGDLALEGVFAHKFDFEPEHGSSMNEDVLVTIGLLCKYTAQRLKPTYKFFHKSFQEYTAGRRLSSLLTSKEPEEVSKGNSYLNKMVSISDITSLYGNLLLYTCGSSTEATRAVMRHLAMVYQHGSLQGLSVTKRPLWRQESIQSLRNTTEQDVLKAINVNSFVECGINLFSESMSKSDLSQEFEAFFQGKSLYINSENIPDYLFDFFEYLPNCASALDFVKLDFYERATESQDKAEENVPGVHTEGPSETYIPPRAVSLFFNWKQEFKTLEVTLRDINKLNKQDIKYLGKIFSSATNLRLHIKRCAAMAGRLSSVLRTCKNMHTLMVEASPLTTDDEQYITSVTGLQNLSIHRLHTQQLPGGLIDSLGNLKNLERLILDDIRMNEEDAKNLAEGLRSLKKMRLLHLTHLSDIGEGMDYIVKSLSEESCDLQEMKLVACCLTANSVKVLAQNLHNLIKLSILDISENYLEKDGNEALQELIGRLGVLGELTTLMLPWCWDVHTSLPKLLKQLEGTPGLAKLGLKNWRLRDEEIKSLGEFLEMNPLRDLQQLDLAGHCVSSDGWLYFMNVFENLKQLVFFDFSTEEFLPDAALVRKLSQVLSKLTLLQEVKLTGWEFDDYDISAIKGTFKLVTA

CO[C@@H]1COc2c(S(=O)(=O)NC(=O)Nc3c4c(cc5c3CCC5)CCC4)cnn2C1 [JT002]
inhibition of IL-1β production after NLRC4 activation (NLRC4 inflammasome): no inhibition of IL-1β production | IC50 (NLRP3 inflammasome; read-out: Geo Av IC50, IL-1α): 3 nM | IC50 (NLRP3 inflammasome; read-out: Geo Av IC50, IL-1β): 4 nM | IC50 (NLRP3 inflammasome; read-out: Geo Av IC50, IL-18): 4 nM

Source: PMC10439952, “JT002, a small molecule inhibitor of the NLRP3 inflammasome for the treatment of autoinflammatory disorders” (Scientific Reports, 2023)
